Legend:
[1] = test system: ISC-enriched organoids; assay: Primary screen, 384-well 2.5-D organoid differentiation (ENR+CD, 6 days): carbachol-induced lysozyme secretion (LYZ.S); assay type: cell-based, murine; settings: primary screen; for Dose.FC.LYZ.S: FC vs plate median; for Z.LYZ.S: standard z score; for SSMD.LYZ.S: strictly standardized mean difference
From the text: (§1) High-throughput screening.

[2] = test system: ISC-enriched organoids; assay: Primary screen, 384-well 2.5-D organoid differentiation (ENR+CD, 6 days, Target Selective Inhibitor Library, vs whole-plate median): ATP (CellTiter-Glo 3D, CTG); settings: for Dose.FC.CTG / SSMD.CTG: primary screen; for Dose.FC.CTG: FC vs plate median; for Z.CTG: standard z score of FC; for SSMD.CTG: strictly standardized mean difference
[3] = test system: ISC-enriched organoids; assay: Primary screen, 384-well 2.5-D organoid differentiation (ENR+CD, 6 days): basal lysozyme secretion (LYZ.NS); assay type: cell-based, murine; settings: for Dose.FC.LYZ.NS / SSMD.LYZ.NS: primary screen; for Dose.FC.LYZ.NS: FC vs plate median; for Z.LYZ.NS: standard z score of FC; for SSMD.LYZ.NS: strictly standardized mean difference
From the text: as §1

[4] = 1st of the 4 dose lines of the treatment (dose not given)
[5] = 2nd of the 4 dose lines of the treatment (dose not given)
[6] = 3rd of the 4 dose lines of the treatment (dose not given)
[7] = 4th of the 4 dose lines of the treatment (dose not given)

## O=[N+]([O-])C=Cc1ccc2c(c1)OCO2
[1]; Dose 0.08 uM
  Dose.FC.LYZ.S: 0.076 log 2 fold change
[1]; Dose 0.40 uM
  Dose.FC.LYZ.S: 0.100 log 2 fold change
[1]; Dose 2.00 uM
  Dose.FC.LYZ.S: 0.019 log 2 fold change
[1]; Dose 10.00 uM
  Dose.FC.LYZ.S: −0.179 log 2 fold change
[1]; [4]
  Z.LYZ.S: 0.493
  SSMD.LYZ.S: 0.451
[1]; [5]
  Z.LYZ.S: 0.648
  SSMD.LYZ.S: 0.331
[1]; [6]
  Z.LYZ.S: 0.124
  SSMD.LYZ.S: 0.073
[1]; [7]
  Z.LYZ.S: −1.157
  SSMD.LYZ.S: −0.676
[2]; Dose 0.08 uM
  Dose.FC.CTG: −0.016 log 2 fold change
  Z.CTG: −0.037
[2]; Dose 0.40 uM
  Dose.FC.CTG: 0.061 log 2 fold change
  Z.CTG: 0.146
[2]; Dose 2.00 uM
  Dose.FC.CTG: 0.062 log 2 fold change
  Z.CTG: 0.148
[2]; Dose 10.00 uM
  Dose.FC.CTG: −0.197 log 2 fold change
  Z.CTG: −0.469
[2]; [4]
  SSMD.CTG: −0.026
[2]; [5]
  SSMD.CTG: 0.148
[2]; [6]
  SSMD.CTG: 0.166
[2]; [7]
  SSMD.CTG: −0.338
[3]; Dose 0.08 uM
  Dose.FC.LYZ.NS: 0.057 log 2 fold change
  Z.LYZ.NS: 0.499
[3]; Dose 0.40 uM
  Dose.FC.LYZ.NS: −0.010 log 2 fold change
  Z.LYZ.NS: −0.088
[3]; Dose 2.00 uM
  Dose.FC.LYZ.NS: 0.040 log 2 fold change
  Z.LYZ.NS: 0.347
[3]; Dose 10.00 uM
  Dose.FC.LYZ.NS: −0.150 log 2 fold change
  Z.LYZ.NS: −1.307
[3]; [4]
  SSMD.LYZ.NS: 0.518
[3]; [5]
  SSMD.LYZ.NS: −0.082
[3]; [6]
  SSMD.LYZ.NS: 0.270
[3]; [7]
  SSMD.LYZ.NS: −0.670
